Read-outs that look alike come from different tables or passages of the source.
Molecular target: T1, IRAK4 (Homo sapiens, UniProt Q9NWZ3)
T1 construct: Degradation of IRAK4 in OCI-LY10 was quantitatively measured using Meso Scale Discovery technology; endogenous in cells; host or cells: OCI-LY10
T1 sequence (Q9NWZ3 1-460): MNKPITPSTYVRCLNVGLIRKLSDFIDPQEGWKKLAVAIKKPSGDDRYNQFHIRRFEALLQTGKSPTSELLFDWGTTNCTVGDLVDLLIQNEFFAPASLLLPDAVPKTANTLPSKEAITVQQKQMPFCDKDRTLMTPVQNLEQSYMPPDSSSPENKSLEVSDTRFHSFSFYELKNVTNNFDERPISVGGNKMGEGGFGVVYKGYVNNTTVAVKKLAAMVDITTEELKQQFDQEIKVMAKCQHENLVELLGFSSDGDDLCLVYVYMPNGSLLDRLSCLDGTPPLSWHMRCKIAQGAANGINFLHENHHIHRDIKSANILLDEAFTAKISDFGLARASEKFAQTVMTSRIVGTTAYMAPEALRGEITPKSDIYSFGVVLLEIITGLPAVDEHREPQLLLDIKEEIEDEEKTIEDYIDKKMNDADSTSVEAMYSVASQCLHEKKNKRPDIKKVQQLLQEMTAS
Test: IRAK4 MSD Degradation in OCI-LY10
Format: cell-based
Details: OCI-LY10 cells, MSD
Summary of the method: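 OCI-LY10 cells exposed to 8-point 1:3 compound series (top 1 to 10 μM) for 4 to 24 h at 37 °C, 5% CO2. Lysate IRAK4 quantified by MSD sandwich immunoassay. DC50 from three-parameter logistic fit, binned A (<0.01 μM) to D (>0.2 μM or not tested).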

[1] = 4 hrs incubation, read-out: IRAK4 degradation in OCI-LY10 at 4 hrs: DC50
[2] = 24 hrs incubation, read-out: IRAK4 degradation in OCI-LY10 at 24 hrs: DC50

| DC50 [1] | DC50 [2] | Structure (SMILES) |
| --- | --- | --- |
| > 200 nM | 10 to 100 nM | CC(C)(O)c1cc2nn([C@H]3CC[C@H](CN4CCC5(CC4)CC(CCNc4cccc6c4C(=O)N(C4CCC(=O)NC4=O)C6=O)C5)CC3)cc2cc1NC(=O)c1cccc(C(F)(F)F)n1 (stereo partly drawn) [I-130] |
| > 200 nM | > 200 nM | COc1cc2nn([C@H]3CC[C@H](CN4CC(c5cccc6c5n(C)c(=O)n6C5CCC(=O)NC5=O)C4)CC3)cc2cc1NC(=O)c1nc(C(C)(C)F)ccc1OC (stereo partly drawn) [I-131] |
| > 200 nM | > 200 nM | COc1cc2nn([C@H]3CC[C@H](CN4CC(c5c(OC)ccc6c5n(C)c(=O)n6C5CCC(=O)NC5=O)C4)CC3)cc2cc1NC(=O)c1cccc(C(C)(C)F)n1 (stereo partly drawn) [I-132] |
| > 200 nM | > 200 nM | COc1cc2nn([C@H]3CC[C@H](CN4CC(c5cccc6c5n(C)c(=O)n6C5CCC(=O)NC5=O)C4)CC3)cc2cc1NC(=O)c1cncc(C(C)(C)F)n1 (stereo partly drawn) [I-134] |
| > 200 nM | > 200 nM | COc1cc2nn([C@H]3CC[C@H](CN4CC(c5cncc6c5n(C)c(=O)n6C5CCC(=O)NC5=O)C4)CC3)cc2cc1NC(=O)c1cccc(C(C)(C)F)n1 (stereo partly drawn) [I-135] |
| > 200 nM |  | COc1cc2nn([C@H]3CC[C@H](CN4CC(c5cccc6c5n(C)c(=O)n6C5CCC(=O)NC5=O)C4)CC3)cc2cc1NC(=O)c1nc(C(C)(C)F)ccc1OC (stereo partly drawn) [I-136] |
| > 200 nM | 10 to 100 nM | COc1ccc(C(F)(F)F)nc1C(=O)Nc1cc2cn([C@H]3CC[C@@H](CN4CCC5(CC4)CC(CNc4cccc6c4C(=O)N(C4CCC(=O)NC4=O)C6=O)C5)CC3)nc2cc1C(C)(C)O (stereo partly drawn) [I-137] |
| > 200 nM | < 10 nM | COc1cc2nn([C@H]3CC[C@H](CN4CCC5(CC4)CC(Oc4cccc6c4C(=O)N(C4CCC(=O)NC4=O)C6=O)C5)CC3)cc2cc1NC(=O)c1cccc(C(F)(F)F)n1 (stereo partly drawn) [I-138] |
| > 200 nM | 10 to 100 nM | CC(C)(O)c1cc2nn([C@H]3CC[C@H](CNCCCCCCCNc4cccc5c4C(=O)N(C4CCC(=O)NC4=O)C5=O)CC3)cc2cc1NC(=O)c1cccc(C(F)(F)F)n1 (stereo partly drawn) [I-139] |
| > 200 nM | 10 to 100 nM | COc1cc2nn([C@H]3CC[C@H](CN4CCC5(CC4)CC(Nc4cccc6c4C(=O)N(C4CCC(=O)NC4=O)C6=O)C5)CC3)cc2cc1NC(=O)c1ccccn1 (stereo partly drawn) [I-140] |
| > 200 nM | 10 to 100 nM | COc1cc2nn([C@H]3CC[C@H](CN4CCC5(CC4)CC(N(C)c4cccc6c4C(=O)N(C4CCC(=O)NC4=O)C6=O)C5)CC3)cc2cc1NC(=O)c1cccc(C(F)(F)F)n1 (stereo partly drawn) [I-141] |
| > 200 nM | < 10 nM | CC(C)(O)c1cc2nn(C3CCC(CNCCCCCNc4cccc5c4C(=O)N(C4CCC(=O)NC4=O)C5=O)CC3)cc2cc1NC(=O)c1cccc(C(F)(F)F)n1 (stereo not drawn) [I-142] |
| > 200 nM | < 10 nM | CC(C)(O)c1cc2nn([C@H]3CC[C@H](CNCCCCCCNc4cccc5c4C(=O)N(C4CCC(=O)NC4=O)C5=O)CC3)cc2cc1NC(=O)c1cccc(C(F)(F)F)n1 (stereo partly drawn) [I-143] |
| < 10 nM | < 10 nM | CC(C)(O)c1cc2nn([C@H]3CC[C@H](CNCCNc4cccc5c4C(=O)N(C4CCC(=O)NC4=O)C5=O)CC3)cc2cc1NC(=O)c1cccc(C(F)(F)F)n1 (stereo partly drawn) [I-144] |
| < 10 nM | < 10 nM | CN(CCCCNc1cccc2c1C(=O)N(C1CCC(=O)NC1=O)C2=O)C[C@H]1CC[C@H](n2cc3cc(NC(=O)c4cccc(C(F)(F)F)n4)c(C(C)(C)O)cc3n2)CC1 (stereo partly drawn) [I-145] |
| > 200 nM | 10 to 100 nM | CC(C)(O)c1cc2nn([C@H]3CC[C@H](CNCCCNc4cccc5c4C(=O)N(C4CCC(=O)NC4=O)C5=O)CC3)cc2cc1NC(=O)c1cccc(C(F)(F)F)n1 (stereo partly drawn) [I-146] |
| 100 to 200 nM | > 200 nM | COc1cc2nn([C@H]3CC[C@H](CN4CCC5(CC4)CCN(c4cccc6c4n(C)c(=O)n6C4CCC(=O)NC4=O)CC5)CC3)cc2cc1NC(=O)c1cncc(OC(F)(F)F)c1 (stereo partly drawn) [I-147] |
| 10 to 100 nM | > 200 nM | COc1cc2nn([C@H]3CC[C@H](CN4CCC5(CC4)CCN(c4cccc6c4n(C)c(=O)n6C4CCC(=O)NC4=O)CC5)CC3)cc2cc1NC(=O)c1cncc(OC(F)F)c1 (stereo partly drawn) [I-148] |
| < 10 nM | > 200 nM | COc1cc2nn([C@H]3CC[C@H](CN4CCC5(CC4)CCN(c4cccc6c4n(C)c(=O)n6C4CCC(=O)NC4=O)CC5)CC3)cc2cc1NC(=O)c1cncc(SC)c1 (stereo partly drawn) [I-149] |

| DC50 [1] | DC50 [2] | Structure (SMILES) |
| --- | --- | --- |
| 10 to 100 nM | > 200 nM | COc1cc2nn([C@H]3CC[C@H](CN4CCC5(CC4)CCN(c4cccc6c4n(C)c(=O)n6C4CCC(=O)NC4=O)CC5)CC3)cc2cc1NC(=O)c1cncc([S+](C)[O-])c1 (stereo partly drawn) [I-150] |
| > 200 nM | > 200 nM | COc1cc2nn([C@H]3CC[C@H](CN4CCC5(CC4)CCN(c4cccc6c4n(C)c(=O)n6C4CCC(=O)NC4=O)CC5)CC3)cc2cc1NC(=O)c1cncc(S(C)(=O)=O)c1 (stereo partly drawn) [I-151] |
| > 200 nM | > 200 nM | COc1cc2nn([C@H]3CC[C@H](CN4CCC5(CC4)CCN(c4cccc6c4n(C)c(=O)n6C4CCC(=O)NC4=O)CC5)CC3)cc2cc1NC(=O)c1cncc(SC(F)(F)F)c1 (stereo partly drawn) [I-152] |
| > 200 nM | > 200 nM | COc1cc2nn([C@H]3CC[C@H](CN4CCC5(CC4)CCN(c4cccc6c4n(C)c(=O)n6C4CCC(=O)NC4=O)CC5)CC3)cc2cc1NC(=O)c1cncc([S+]([O-])C(F)(F)F)c1 (stereo partly drawn) [I-153] |
| > 200 nM | > 200 nM | COc1cc2nn([C@H]3CC[C@H](CN4CCC5(CC4)CCN(c4cccc6c4n(C)c(=O)n6C4CCC(=O)NC4=O)CC5)CC3)cc2cc1NC(=O)c1cncc(S(=O)(=O)C(F)(F)F)c1 (stereo partly drawn) [I-154] |
| < 10 nM | > 200 nM | COc1cc2nn([C@H]3CC[C@H](CN4CCC5(CC4)CCN(c4cccc6c4n(C)c(=O)n6C4CCC(=O)NC4=O)CC5)CC3)cc2cc1NC(=O)c1cncc(C(F)(F)F)n1 (stereo partly drawn) [I-155] |
| > 200 nM | 10 to 100 nM | COc1cc2nn([C@H]3CC[C@H](CN4CCC5(CC4)CCN(c4cccc6c4n(C)c(=O)n6C4CCC(=O)NC4=O)CC5)CC3)cc2cc1NC(=O)c1cncc(C#N)c1 (stereo partly drawn) [I-156] |
| < 10 nM | > 200 nM | COc1cc2nn([C@H]3CC[C@H](CN4CCC5(CC4)CCN(c4cccc6c4n(C)c(=O)n6C4CCC(=O)NC4=O)CC5)CC3)cc2cc1NC(=O)c1nn(C)cc1Cl (stereo partly drawn) [I-157] |
| < 10 nM | > 200 nM | Cn1c(=O)n(C2CCC(=O)NC2=O)c2cccc(N3CCC(CN4CCN(C[C@H]5CC[C@H](n6cc(NC(=O)c7cnn8ccc(N9C[C@@H]%10C[C@H]9CO%10)nc78)c(C(F)F)n6)CC5)CC4)CC3)c21 (stereo partly drawn) [I-158] |
| < 10 nM | > 200 nM | Cn1c(=O)n(C2CCC(=O)NC2=O)c2cccc(N3CCC(OC4CCN(C[C@H]5CC[C@H](n6cc(NC(=O)c7cnn8ccc(N9C[C@@H]%10C[C@H]9CO%10)nc78)c(C(F)F)n6)CC5)CC4)CC3)c21 (stereo partly drawn) [I-159] |
| < 10 nM | < 10 nM | Cn1c(=O)n(C2CCC(=O)NC2=O)c2cccc(C#CCCC3CCN(CC4CCC(n5cc(NC(=O)c6cnn7ccc(C8C[C@H]9C[C@@H]8CO9)nc67)c(C(F)F)n5)CC4)CC3)c21 (stereo partly drawn) [I-160] |
| < 10 nM | > 200 nM | Cn1c(=O)n(C2CCC(=O)NC2=O)c2cccc(N3CCN(CC4CCN(C[C@H]5CC[C@H](n6cc(NC(=O)c7cnn8ccc(N9C[C@@H]%10C[C@H]9CO%10)nc78)c(C(F)F)n6)CC5)CC4)CC3)c21 (stereo partly drawn) [I-161] |
| < 10 nM | > 200 nM | Cn1c(=O)n(C2CCC(=O)NC2=O)c2cccc(C#CCCN3CCN(CC4CCC(n5cc(NC(=O)c6cnn7ccc(C8C[C@H]9C[C@@H]8CO9)nc67)c(C(F)F)n5)CC4)CC3)c21 (stereo partly drawn) [I-162] |
| < 10 nM | > 200 nM | Cn1c(=O)n(C2CCC(=O)NC2=O)c2cccc(N3CCN(CC4CCN(C[C@H]5CC[C@H](n6cc(NC(=O)c7cnn8ccc(N9C[C@H]%10C[C@@H]9CO%10)nc78)c(C(F)F)n6)CC5)CC4)CC3)c21 (stereo partly drawn) [I-163] |
| < 10 nM | > 200 nM | Cn1c(=O)n(C2CCC(=O)NC2=O)c2cccc(N3CCC(CN4CCN(C[C@H]5CC[C@H](n6cc(NC(=O)c7cnn8ccc(N9C[C@H]%10C[C@@H]9CO%10)nc78)c(C(F)F)n6)CC5)CC4)CC3)c21 (stereo partly drawn) [I-164] |
| < 10 nM | > 200 nM | Cn1c(=O)n(C2CCC(=O)NC2=O)c2cccc(N3CCC(OC4CCN(C[C@H]5CC[C@H](n6cc(NC(=O)c7cnn8ccc(N9C[C@H]%10C[C@@H]9CO%10)nc78)c(C(F)F)n6)CC5)CC4)CC3)c21 (stereo partly drawn) [I-165] |
| 10 to 100 nM | > 200 nM | Cn1c(=O)n(C2CCC(=O)NC2=O)c2cccc(C#CCOC3CCN(C[C@H]4CC[C@H](n5cc(NC(=O)c6cnn7ccc(N8C[C@H]9C[C@@H]8CO9)nc67)c(C(F)(F)F)n5)CC4)CC3)c21 (stereo partly drawn) [I-166] |
| > 200 nM | 10 to 100 nM | Cn1c(=O)n(C2CCC(=O)NC2=O)c2cccc(C#CCOC3CCN(C[C@H]4CC[C@H](n5cc(NC(=O)c6cnn7ccc(N8C[C@H]9C[C@@H]8CO9)nc67)c(Cl)n5)CC4)CC3)c21 (stereo partly drawn) [I-167] |
| > 200 nM | > 200 nM | Cc1nn([C@H]2CC[C@H](CN3CCC(OCC#Cc4cccc5c4n(C)c(=O)n5C4CCC(=O)NC4=O)CC3)CC2)cc1NC(=O)c1cnn2ccc(N3C[C@H]4C[C@@H]3CO4)nc12 (stereo partly drawn) [I-168] |
